# “Also recorded” adds a separate entry of the source. Read-outs that look alike come from different tables or passages of the source.
# Columns and labels:
# [1] = clinical development; cited from earlier work
# pChk1ser345 and pH2AX = assay type: in vivo, human
# Japanese patients = details: in combination with gemcitabine, bradycardia, hypertension, DLT troponin T increase; cited from earlier work
# advanced solid tumors = test: Tumor assessments according to RECIST version 1.0; assay type: in vivo, human; details: of 38 evaluable; AZD7762 plus gemcitabine
# [2] = Single-dose pharmacokinetics of AZD7762 in plasma and urine
# [3] = tested on: patients with advanced solid tumors; details: for Serious AE possibly related to AZD7762: one patient
# [4] = AZD7762 6 mg/gemcitabine 750 mg/m^2, 3x/cycle, n=6
# [5] = AZD7762 6 mg/gemcitabine 1,000 mg/m^2, 2x/cycle, n=2
# [6] = AZD7762 6 mg/gemcitabine 1,000 mg/m^2, 3x/cycle, n=1
# [7] = AZD7762 9 mg/gemcitabine 1,000 mg/m^2, n=3
# [8] = AZD7762 14 mg/gemcitabine 1,000 mg/m^2, n=6
# [9] = AZD7762 21 mg/gemcitabine 1,000 mg/m^2, n=3
# [10] = AZD7762 30 mg/gemcitabine 1,000 mg/m^2, n=7
# [11] = AZD7762 32 mg/gemcitabine 1,000 mg/m^2, n=6
# [12] = AZD7762 40 mg/gemcitabine 1,000 mg/m^2, n=8
# [13] = all doses, overall, 11/42 patients
# [14] = cycle 0 (AZD7762 alone), 6/42 patients
# [15] = cycle 1 onwards, AZD7762 6 mg plus gemcitabine 1,000 mg/m^2, 3x/cycle, n=1
smiles,measurement,setting,value
"CN[C@@H]1C[C@H]2O[C@@](C)([C@@H]1OC)n1c3ccccc3c3c4c(c5c6ccccc6n2c5c31)C(=O)N[C@H]4O [UCN-01, 7-hydroxyl-staurosporine]",Dose-limiting toxicity,[1],prominent dose-limiting hyperglycemia
NC(=O)Nc1cc(-c2cccc(F)c2)sc1C(=O)N[C@H]1CCCNC1 [AZD7762],Change in staining of pChk1ser345 and pH2AX,"pChk1ser345 and pH2AX; 32 mg cohort, AZD7762 after gemcitabine",small increases in staining
same,H-scores for both biomarkers (out of 12),"pChk1ser345 and pH2AX; hair follicles from skin biopsies, pChk1ser345 and pH2AX",0–3
same,Change in staining of pChk1ser345 and pH2AX,pChk1ser345 and pH2AX; other dose cohorts,no increased staining
same,Dose escalation limit due to cardiac AEs,Japanese patients,did not support dose escalation beyond 21 mg
same,"Best response stable disease for ≥6–<12 weeks, patients",advanced solid tumors,five
same,"Disease progression as best response, patients",advanced solid tumors,20 patients
same,"Stable disease for ≥12 weeks, patients",advanced solid tumors,four
same,Peak plasma concentration,[2]; 30 mg dose,291 ng/mL
same,Unchanged drug excreted in the urine,"[2]; first 48 h post-dosing, across all dose levels",11–20%
same,"AZD7762 exposure (Cmax, C24 h, and AUC) versus dose",[2]; over the dose range studied,increased linearly; also recorded: increased in a dose-proportional manner
same,"Blood ALP increased, number of patients (%)",[3]; [4],0 patients (%)
same,"Constipation, number of patients (%)",[3]; [4],2 (33) patients (%)
same,"Decreased appetite, number of patients (%)",[3]; [4],2 (33) patients (%)
same,"Dehydration, number of patients (%)",[3]; [4],2 (33) patients (%)
same,"Diarrhea, number of patients (%)",[3]; [4],0 patients (%)
same,"Neutropenia/leukopenia, number of patients (%)",[3]; [4],0 patients (%)
same,"Thrombocytopenia, number of patients (%)",[3]; [4],2 (33) patients (%)
same,"Vomiting, number of patients (%)",[3]; [4],2 (33) patients (%)
same,"Decreased appetite, number of patients (%)",[3]; [5],0 patients (%)
same,"Diarrhea, number of patients (%)",[3]; [5],0 patients (%)
same,"Headache, number of patients (%)",[3]; [5],0 patients (%)
same,"Nausea, number of patients (%)",[3]; [5],0 patients (%)
same,"Neutropenia/leukopenia, number of patients (%)",[3]; [5],0 patients (%)
same,"Thrombocytopenia, number of patients (%)",[3]; [5],0 patients (%)
same,"ALT/AST increased, number of patients (%)",[3]; [6],0 patients (%)
same,"Blood ALP increased, number of patients (%)",[3]; [6],0 patients (%)
same,"Constipation, number of patients (%)",[3]; [6],0 patients (%)
same,"Decreased appetite, number of patients (%)",[3]; [6],0 patients (%)
same,"Dehydration, number of patients (%)",[3]; [6],0 patients (%)
same,"Headache, number of patients (%)",[3]; [6],0 patients (%)
same,"Thrombocytopenia, number of patients (%)",[3]; [6],0 patients (%)
same,"ALT/AST increased, number of patients (%)",[3]; [7],0 patients (%)
same,"Anemia/Hb decreased, number of patients (%)",[3]; [7],1 (33) patients (%)
same,"Blood ALP increased, number of patients (%)",[3]; [7],0 patients (%)
same,"Constipation, number of patients (%)",[3]; [7],1 (33) patients (%)
same,"Decreased appetite, number of patients (%)",[3]; [7],0 patients (%)
same,"Dehydration, number of patients (%)",[3]; [7],1 (33) patients (%)
same,"Diarrhea, number of patients (%)",[3]; [7],1 (33) patients (%)
same,"Fatigue, number of patients (%)",[3]; [7],1 (33) patients (%)
same,"Nausea, number of patients (%)",[3]; [7],1 (33) patients (%)
same,"Neutropenia/leukopenia, number of patients (%)",[3]; [7],0 patients (%)
same,"Thrombocytopenia, number of patients (%)",[3]; [7],1 (33) patients (%)
same,"Vomiting, number of patients (%)",[3]; [7],0 patients (%)
same,"ALT/AST increased, number of patients (%)",[3]; [8],0 patients (%)
same,"Anemia/Hb decreased, number of patients (%)",[3]; [8],0 patients (%)
same,"Blood ALP increased, number of patients (%)",[3]; [8],0 patients (%)
same,"Constipation, number of patients (%)",[3]; [8],2 (33) patients (%)
same,"Dehydration, number of patients (%)",[3]; [8],0 patients (%)
same,"Headache, number of patients (%)",[3]; [8],0 patients (%)
same,"Neutropenia/leukopenia, number of patients (%)",[3]; [8],2 (33) patients (%)
same,"ALT/AST increased, number of patients (%)",[3]; [9],0 patients (%)
same,"Anemia/Hb decreased, number of patients (%)",[3]; [9],0 patients (%)
same,"Blood ALP increased, number of patients (%)",[3]; [9],0 patients (%)
same,"Constipation, number of patients (%)",[3]; [9],0 patients (%)
same,"Dehydration, number of patients (%)",[3]; [9],1 (33) patients (%)
same,"Diarrhea, number of patients (%)",[3]; [9],0 patients (%)
same,"Headache, number of patients (%)",[3]; [9],0 patients (%)
same,"Nausea, number of patients (%)",[3]; [9],1 (33) patients (%)
same,"Neutropenia/leukopenia, number of patients (%)",[3]; [9],0 patients (%)
same,"Pyrexia, number of patients (%)",[3]; [9],0 patients (%)
same,"Thrombocytopenia, number of patients (%)",[3]; [9],0 patients (%)
same,"Vomiting, number of patients (%)",[3]; [9],1 (33) patients (%)
same,"Constipation, number of patients (%)",[3]; [10],1 (14) patients (%)
same,"Decreased appetite, number of patients (%)",[3]; [10],0 patients (%)
same,"Dehydration, number of patients (%)",[3]; [10],0 patients (%)
same,"Fatigue, number of patients (%)",[3]; [10],0 patients (%)
same,"Headache, number of patients (%)",[3]; [10],0 patients (%)
same,"Nausea, number of patients (%)",[3]; [10],1 (14) patients (%)
same,"Pyrexia, number of patients (%)",[3]; [10],0 patients (%)
same,"Thrombocytopenia, number of patients (%)",[3]; [10],0 patients (%)
same,"ALT/AST increased, number of patients (%)",[3]; [11],0 patients (%)
same,"Blood ALP increased, number of patients (%)",[3]; [11],0 patients (%)
same,"Constipation, number of patients (%)",[3]; [11],0 patients (%)
same,"Decreased appetite, number of patients (%)",[3]; [11],2 (33) patients (%)
same,"Diarrhea, number of patients (%)",[3]; [11],2 (33) patients (%)
same,"Anemia/Hb decreased, number of patients (%)",[3]; [12],2 (25) patients (%)
same,"Decreased appetite, number of patients (%)",[3]; [12],0 patients (%)
same,"Dehydration, number of patients (%)",[3]; [12],0 patients (%)
same,"Fatigue, number of patients (%)",[3]; [12],2 (25) patients (%)
same,"Headache, number of patients (%)",[3]; [12],0 patients (%)
same,"Nausea, number of patients (%)",[3]; [12],2 (25) patients (%)
same,"Pyrexia, number of patients (%)",[3]; [12],2 (25) patients (%)
same,"Thrombocytopenia, number of patients (%)",[3]; [12],2 (25) patients (%)
same,"ALT/AST increase, patients with AE overall",[3]; [13],26%
same,"Nausea, patients with AE overall",[3]; [13],26%
same,"Pyrexia, patients with AE overall",[3]; [13],26%
same,"Anemia/Hb decrease, patients with AE overall","[3]; all doses, overall, 12/42 patients",29%
same,"Neutropenia/leukopenia, patients with AE overall","[3]; all doses, overall, 15/42 patients",36%
same,"Fatigue, patients with AE overall","[3]; all doses, overall, 17/42 patients",41%
same,"ALT/AST increased, number of patients (%)","[3]; all doses, total n=42",11 (26) patients (%)
same,"Dehydration, number of patients (%)","[3]; all doses, total n=42",6 (14) patients (%)
same,"Nausea, number of patients (%)","[3]; all doses, total n=42",11 (26) patients (%)
same,"Pyrexia, number of patients (%)","[3]; all doses, total n=42",11 (26) patients (%)
same,"Nausea, patients with AE","[3]; cycle 0 (AZD7762 alone), 5/42 patients",12%
same,"Fatigue, patients with AE",[3]; [14],14%
same,"Vomiting, patients with AE",[3]; [14],14%
same,"AEs of CTCAE grade ≥3, patients","[3]; cycle 0 (AZD7762 alone), 8/42 patients",19%
same,"Adverse events grade ≥3, patients","[3]; cycle 0, AZD7762 monotherapy 6 mg (6/750 cohort, 3x/cycle, n=6)",2 (33) n (%)
same,"Adverse events grade ≥3, patients","[3]; cycle 0, AZD7762 monotherapy 6 mg (6/1,000 cohort, 2x/cycle, n=2)",0 n (%)
same,"Adverse events grade ≥3, patients","[3]; cycle 0, AZD7762 monotherapy 6 mg (6/1,000 cohort, 3x/cycle, n=1)",0 n (%)
same,"Adverse events grade ≥3, patients","[3]; cycle 0, AZD7762 monotherapy 9 mg, n=3",0 n (%)
same,"Adverse events grade ≥3, patients","[3]; cycle 0, AZD7762 monotherapy 14 mg, n=6",0 n (%)
same,"Adverse events grade ≥3, patients","[3]; cycle 0, AZD7762 monotherapy 21 mg, n=3",0 n (%)
same,"Adverse events grade ≥3, patients","[3]; cycle 0, AZD7762 monotherapy 30 mg, n=7",0 n (%)
same,"Adverse events grade ≥3, patients","[3]; cycle 0, AZD7762 monotherapy 32 mg, n=6",3 (50) n (%)
same,"Grade ≥3 adverse events, term","[3]; cycle 0, AZD7762 monotherapy 32 mg, n=6, n=1 per term unless stated",Hyponatremia Peripheral neuropathy Troponin I increased
same,"Adverse events grade ≥3, patients","[3]; cycle 0, AZD7762 monotherapy 40 mg, n=8",3 (38) n (%)
same,"Grade ≥3 adverse events, term","[3]; cycle 0, AZD7762 monotherapy 40 mg, n=8, n=1 per term unless stated",Device-related infection Myocardial ischemia Hyperglycemia
same,"AEs of CTCAE grade ≥3, patients","[3]; cycle 1 (AZD7762 in combination with gemcitabine), 22/42 patients",52%
same,Non-cardiac dose-limiting toxicity,"[3]; cycle 1, one patient at AZD7762 32 mg with gemcitabine 1,000 mg/m^2",grade 3 nausea/vomiting for 2 days
same,Non-cardiac dose-limiting toxicity,"[3]; cycle 1, one patient at AZD7762 40 mg with gemcitabine 1,000 mg/m^2",grade 4 neutropenia complicated by ≥38.5 °C fever for 2 days
same,"Adverse events grade ≥3, patients","[3]; cycle 1 onwards, AZD7762 6 mg plus gemcitabine 750 mg/m^2, 3x/cycle, n=6",5 (83) n (%)
same,"Adverse events grade ≥3, patients","[3]; cycle 1 onwards, AZD7762 6 mg plus gemcitabine 1,000 mg/m^2, 2x/cycle, n=2",1 (50) n (%)
same,"Adverse events grade ≥3, patients",[3]; [15],1 (100) n (%)
same,"Grade ≥3 adverse events, term",[3]; [15],Neutropenia (n = 2)
same,"Adverse events grade ≥3, patients","[3]; cycle 1 onwards, AZD7762 9 mg plus gemcitabine 1,000 mg/m^2, n=3",1 (33) n (%)
same,"Grade ≥3 adverse events, term","[3]; cycle 1 onwards, AZD7762 9 mg plus gemcitabine 1,000 mg/m^2, n=3, n=1 per term",Thrombocytopenia
same,"Adverse events grade ≥3, patients","[3]; cycle 1 onwards, AZD7762 14 mg plus gemcitabine 1,000 mg/m^2, n=6",2 (33) n (%)
same,"Adverse events grade ≥3, patients","[3]; cycle 1 onwards, AZD7762 21 mg plus gemcitabine 1,000 mg/m^2, n=3",1 (33) n (%)
same,"Grade ≥3 adverse events, term","[3]; cycle 1 onwards, AZD7762 21 mg plus gemcitabine 1,000 mg/m^2, n=3, n=1 per term",Atrial thrombosis Febrile neutropenia
same,"Adverse events grade ≥3, patients","[3]; cycle 1 onwards, AZD7762 30 mg plus gemcitabine 1,000 mg/m^2, n=7",4 (57) n (%)
same,"Adverse events grade ≥3, patients","[3]; cycle 1 onwards, AZD7762 32 mg plus gemcitabine 1,000 mg/m^2, n=6",3 (50) n (%)
same,"Grade ≥3 adverse events, term","[3]; cycle 1 onwards, AZD7762 32 mg plus gemcitabine 1,000 mg/m^2, n=6, n=1 per term",Neutropenia Flank pain Nausea Vomiting
same,"Adverse events grade ≥3, patients","[3]; cycle 1 onwards, AZD7762 40 mg plus gemcitabine 1,000 mg/m^2, n=8",4 (50) n (%)
same,"Adverse events grade ≥3, patients","[3]; cycle 1 onwards, AZD7762 plus gemcitabine, all doses, total n=42",22 (52) n (%)
same,Serious AE possibly related to AZD7762,"[3]; AZD7762 30 mg group, also judged causally related to gemcitabine",grade 3 chest pain
same,Serious AE possibly related to AZD7762,"[3]; AZD7762 40 mg group, also recorded as a DLT",grade 3 myocardial ischemia

# Reference: publication PMC4486055 (Cancer chemotherapy and pharmacology, 2014)
